Square brackets hold non-standard residues; d marks the D form. Ends that are not written are not given here. Ala(cPr) = N[C@@H](CC1CC1)C(=O)O
Experiments:
[1] = tested on: CD8+ SupT1 cells; test: Screen of focused OBOC peptide library against CD8+ cells; assay type: cell-based; conditions: 10% FBS
Experimental: In addition to screening the focused library against recombinant human CD8 protein, the library was screened against cells. Non-specific PCCs were identified and removed by an anti-screen against CD8− Jurkat cells. The pre-cleared library entered into a screen against CD8+ SupT1 cells in 2% FBS for 1 h at 4° C. […] Non-canonical amino acids including cyclopropyl alanine, thiazolyl alanine, 4-fluorophenylalanine, and 1-methyltryptophan were identified among the hits. The consensus sequence from the hits in Table 6 is trrkr (SEQ ID NO:30).
Because of the large number of electrostatic hits in the screen with 2% FBS, additional screens were performed varying the blocking conditions to decrease the quantity of electrostatic hits. In particular, screens using 10% FBS gave no hits with any electrostatic amino acids. These conditions ultimately identified tnpks (SEQ ID NO:31) and tp(CyA)k(Fp).

[2] = tested on: CD8+ SupT1 cells; test: Flow cytometry binding to CD8+ SupT1 and CD8− Jurkat cells; assay type: cell-based; conditions: FIG. 1
Excerpt: FIG. 1 is a graph binding of some example peptides to CD8+ cells (SuppT1 cells) and CD8− cells (Jurkat cells).
The hits identified in the non-canonical screen were further evaluated in CD8+ SupT1 and CD8− Jurkat cells by flow cytometry.

Substance	hit in CD8+ cell screen with varied blocking conditions [1]	binding to CD8 compared with parent compound tfpkk [2]
tnpks: hit identified in CD8+ cell screen using 10% FBS (TNPKS; (1)..(5) D amino acids)	identified	–
tp(CyA)k(FP): hit sequence following CD8+ cell screen; also identified in 10% FBS screen ([dT][dP][Ala(cPr)][dK]X; not fully specified (residue 5); printed as tp(CyA)k(FP))	identified	improved binding to CD8 over the parent compound

Source: patent US11919972B2, “Peptide libraries with non-canonical amino acids” (REGENERON PHARMACEUTICALS, INC., priority 2018, dated 2024)
